Reference: patent US20240391964A1, “COMPOSITIONS AND METHODS FOR THE TREATMENT OF CANCER” (The University of Western Australia, priority 2020, published 2024)

Test system: T11 tumours
Experiment: T11 allograft in BALB/c mice, intratumoral treatment
Type: in vivo
Settings: day 14 post-inoculation, mean±SEM
Experimental: To investigate the efficacy of the combination of melittin and docetaxel in reducing TNBC growth in vivo, T11 cells were transplanted in BALB/c mice. This allograft model recapitulates highly aggressive, TNBC claudin-low disease in mice with an intact immune system. Three days after the generation of T11 tumours (˜50 mm^3), mice were randomized into four groups (n=12 mice/group) and treated intratumorally with either vehicle, melittin (5 mg/Kg), docetaxel (7 mg/Kg), or a combination of melittin (5 mg/Kg) and docetaxel (7 mg/Kg). Mice were treated every two days from day three, with a total of seven treatments.
The therapeutic effects of melittin and docetaxel were validated in tumour tissues at day 14 post-inoculation of T11 cells by immunohistochemistry and immunofluorescence (FIG. 14A).

CC(=O)O[C@@]12CO[C@@H]1C[C@H](O)[C@@]1(C)C(=O)[C@H](O)C3=C(C)[C@@H](OC(=O)[C@H](O)[C@@H](NC(=O)OC(C)(C)C)c4ccccc4)C[C@@](O)([C@@H](OC(=O)c4ccccc4)[C@H]21)C3(C)C [docetaxel]
PD-L1 expression in tumours: 84.3±0.6%
tumour cell proliferation (Ki-67 expression): 21.0±1.3%
